Experiments:
MMP-2 [1] = experiment: Substrate phage display with NGS: relative probability (RP) of P3-P1' tetramer clusters; assay type: biochemical, human; details: MMP2;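 further: ratio of tetramer probability after protease selection to that in naive phage library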
MMP-2 [2] = target: T1, MMP-2 (Homo sapiens, UniProt P08253); experiment: K(obs) of individual phage substrates (set of 1369); assay type: biochemical; details: MMP2
T1 sequence (P08253 110-660): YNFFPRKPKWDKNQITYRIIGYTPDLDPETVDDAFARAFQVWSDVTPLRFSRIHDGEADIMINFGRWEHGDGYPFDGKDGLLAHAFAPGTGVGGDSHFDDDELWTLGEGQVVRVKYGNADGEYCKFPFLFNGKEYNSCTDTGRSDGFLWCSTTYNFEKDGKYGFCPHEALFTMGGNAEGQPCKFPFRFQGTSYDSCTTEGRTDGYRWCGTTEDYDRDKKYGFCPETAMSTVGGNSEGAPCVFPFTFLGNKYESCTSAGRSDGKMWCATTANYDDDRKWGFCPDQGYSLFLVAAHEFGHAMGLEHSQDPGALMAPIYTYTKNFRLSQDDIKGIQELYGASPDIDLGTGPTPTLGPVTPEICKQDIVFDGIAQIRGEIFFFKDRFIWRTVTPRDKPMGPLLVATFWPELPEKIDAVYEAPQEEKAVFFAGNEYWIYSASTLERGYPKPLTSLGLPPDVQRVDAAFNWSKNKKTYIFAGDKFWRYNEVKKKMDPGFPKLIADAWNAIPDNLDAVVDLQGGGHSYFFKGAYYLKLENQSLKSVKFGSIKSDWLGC

MMP-9 = MMP-9 (Homo sapiens, UniProt P14780); experiment: as above; assay type: biochemical; details: MMP9
[3] = RP of the P3-P1' tetramer contained in the substrate
[4] = individual phage substrate of the set of 1369 peptides, cleavage position marked by '-'
[5] = individual phage substrate of the set of 1369 peptides, dash in the sequence marks the cleavage position
[6] = RP of the P3-P1' tetramer contained in the substrate (substrate phage display with NGS)
[7] = individual phage substrates, set of 1369 peptides, cleavage position marked by hyphen in sequence
[8] = individual phage substrates, set of 1369 peptides, hyphen in sequence marks cleavage position

MMP-9, sequence (P14780 94-707): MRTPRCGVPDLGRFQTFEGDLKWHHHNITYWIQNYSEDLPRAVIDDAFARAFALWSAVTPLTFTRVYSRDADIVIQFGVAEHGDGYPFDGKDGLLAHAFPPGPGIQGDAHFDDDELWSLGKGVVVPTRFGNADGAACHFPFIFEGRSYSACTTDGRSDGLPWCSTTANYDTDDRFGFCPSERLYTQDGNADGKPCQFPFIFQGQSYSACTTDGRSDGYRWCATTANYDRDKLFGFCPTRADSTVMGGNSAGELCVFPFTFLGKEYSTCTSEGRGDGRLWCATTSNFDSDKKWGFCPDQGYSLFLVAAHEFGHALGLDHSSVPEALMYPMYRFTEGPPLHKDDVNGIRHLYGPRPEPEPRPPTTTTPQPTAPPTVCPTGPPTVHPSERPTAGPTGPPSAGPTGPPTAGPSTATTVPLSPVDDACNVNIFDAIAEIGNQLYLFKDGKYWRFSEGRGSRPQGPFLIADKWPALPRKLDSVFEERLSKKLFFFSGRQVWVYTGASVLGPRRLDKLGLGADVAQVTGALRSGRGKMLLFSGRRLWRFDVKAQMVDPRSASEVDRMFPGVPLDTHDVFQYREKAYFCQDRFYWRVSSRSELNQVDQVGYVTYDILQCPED

| Substance | relative probability (RP) (MMP-2 [1]; [3]) | Kobs (MMP-2 [2]; [4]) | Kobs (MMP-9; [5]) | relative probability (RP) (MMP-2 [1]; [6]) | Kobs (MMP-2 [2]; [7]) | Kobs (MMP-9; [8]) |
| --- | --- | --- | --- | --- | --- | --- |
| TFWGA-LTASG | 26.3441 | 10866.7 M⁻¹ s⁻¹ | 0 M⁻¹ s⁻¹ | – | – | – |
| VSLAY-LTASG | – | – | – | 25.3422 | 12792.1 M⁻¹ s⁻¹ | 113.394 M⁻¹ s⁻¹ |
| GTLRS-LITAS | 15.1373 | 12792.1 M⁻¹ s⁻¹ | 1465.65 M⁻¹ s⁻¹ | – | – | – |
| VLPRS-WTASG | – | – | – | 32.796 | 8321.48 M⁻¹ s⁻¹ | 5889.62 M⁻¹ s⁻¹ |
| LQSMN-LTASG | – | – | – | 2.165 | 0 M⁻¹ s⁻¹ | 1239.69 M⁻¹ s⁻¹ |
| IDTRW-YTASG | 6.7229 | 3344.37 M⁻¹ s⁻¹ | 2344.36 M⁻¹ s⁻¹ | – | – | – |
| AVLSN-LTASG | – | – | – | 32.5007 | 8321.48 M⁻¹ s⁻¹ | 261.974 M⁻¹ s⁻¹ |
| IPLLN-LTASG | – | – | – | 8.579 | 12792.1 M⁻¹ s⁻¹ | 1870.4 M⁻¹ s⁻¹ |
| GSGRH-LIKVT | – | – | – | 3.598 | 386.839 M⁻¹ s⁻¹ | 27.918 M⁻¹ s⁻¹ |
| GLPYA-LYTAS | – | – | – | 33.2554 | 12792.1 M⁻¹ s⁻¹ | 12792.1 M⁻¹ s⁻¹ |
| GSPYG-LLTAS | 32.9966 | 8941.32 M⁻¹ s⁻¹ | 12792.1 M⁻¹ s⁻¹ | – | – | – |
| APVLA-LTASG | – | – | – | 13.5229 | 12792.1 M⁻¹ s⁻¹ | 6688.74 M⁻¹ s⁻¹ |
| SVGLY-LTASG | 0.07615 | 418.952 M⁻¹ s⁻¹ | 0 M⁻¹ s⁻¹ | – | – | – |
| AMPLH-MTASG | – | – | – | 30.0095 | 6688.74 M⁻¹ s⁻¹ | 7386.83 M⁻¹ s⁻¹ |
| HNANY-LTASG | – | – | – | 3.901 | 1610.61 M⁻¹ s⁻¹ | 0 M⁻¹ s⁻¹ |
| SGPHH-LTLTA | 27.4742 | 1327.88 M⁻¹ s⁻¹ | 1925.41 M⁻¹ s⁻¹ | – | – | – |
| RVTWA-LTASG | – | – | – | 0.4366 | 0 M⁻¹ s⁻¹ | 1196.62 M⁻¹ s⁻¹ |
| YNWRH-LTASG | – | – | – | 0.4087 | 799.117 M⁻¹ s⁻¹ | 619.843 M⁻¹ s⁻¹ |

| Substance | relative probability (RP) (MMP-2 [1]; [3]) | Kobs (MMP-2 [2]; [4]) | Kobs (MMP-9; [5]) | relative probability (RP) (MMP-2 [1]; [6]) | Kobs (MMP-2 [2]; [7]) | Kobs (MMP-9; [8]) |
| --- | --- | --- | --- | --- | --- | --- |
| GIVRY-LQTAS | 18.3724 | 4922.1 M⁻¹ s⁻¹ | 3438.54 M⁻¹ s⁻¹ | – | – | – |
| ISVNY-LTASG | – | – | – | 8.427 | 3637.04 M⁻¹ s⁻¹ | 323.705 M⁻¹ s⁻¹ |
| MSLGN-LTASG | – | – | – | 33.3542 | 12792.1 M⁻¹ s⁻¹ | 292.668 M⁻¹ s⁻¹ |
| AYGSH-LTASG | 4.2785 | 3253.29 M⁻¹ s⁻¹ | 654.784 M⁻¹ s⁻¹ | – | – | – |
| SLPRP-LTASG | – | – | – | 34.3303 | 6396.07 M⁻¹ s⁻¹ | 10866.7 M⁻¹ s⁻¹ |
| GMVQH-LITAS | 22.9738 | 10866.7 M⁻¹ s⁻¹ | 585.336 M⁻¹ s⁻¹ | – | – | – |
| RIPAS-LTASG | 36.4285 | 12792.1 M⁻¹ s⁻¹ | 12792.1 M⁻¹ s⁻¹ | – | – | – |
| SGARA-MKWTA | 25.2992 | 1373.05 M⁻¹ s⁻¹ | 2837.92 M⁻¹ s⁻¹ | – | – | – |
| GSLAH-LTASG | 32.813 | 12792.1 M⁻¹ s⁻¹ | 0 M⁻¹ s⁻¹ | – | – | – |
| VMVWN-ITASG | – | – | – | 4.0144 | 2761.81 M⁻¹ s⁻¹ | 8321.48 M⁻¹ s⁻¹ |
| VIPRP-LTASG | 34.3303 | 12792.1 M⁻¹ s⁻¹ | 12792.1 M⁻¹ s⁻¹ | – | – | – |
| GFPLM-YATAS | 17.2027 | 142.481 M⁻¹ s⁻¹ | 1763.55 M⁻¹ s⁻¹ | – | – | – |
| RFPRP-ITASG | 33.2176 | 12792.1 M⁻¹ s⁻¹ | 12792.1 M⁻¹ s⁻¹ | – | – | – |
| KKWRG-LTASG | 23.375 | 3079.62 M⁻¹ s⁻¹ | 6688.74 M⁻¹ s⁻¹ | – | – | – |
| SGPSW-LYTTA | – | – | – | 35.705 | 9740.44 M⁻¹ s⁻¹ | 10866.7 M⁻¹ s⁻¹ |
| TVPYQ-LTASG | 25.4279 | 12792.1 M⁻¹ s⁻¹ | 12792.1 M⁻¹ s⁻¹ | – | – | – |
| TFPFM-LTASG | 19.624 | 1981.53 M⁻¹ s⁻¹ | 12792.1 M⁻¹ s⁻¹ | – | – | – |

Reference: publication PMC7932537, “Quantitative profiling of protease specificity” (PLoS Computational Biology, 2021)
